{"source": "patent US20240415790A1", "about": "“A COMPOSITION FOR USE IN THE TREATMENT OF INTERVERTEBRAL DISC HERNIATION” (STAYBLE THERAPEUTICS AB, priority 2020, published 2024)", "key": {"collagen I": {"tested_on": "collagen I", "assay": "Immunohistochemical analysis of collagen I in porcine IVD", "format": "in vivo", "details": "pig, LA 60 mg/mL, treated vs untreated IVDs", "experimental": "Since effects of LA on the NP in the subsequent clinical study was planned to be assessed using MRI, the third series focused on the effects of LA (0.2 mL, 60 mg/mL) on sclerotization as measured by T2-weighted MRI. In addition, effects of LA on the expression of collagen I and II were studied by immunohistochemistry (IHC). The macroscopic changes after LA at 60 mg/mL were similar to those described above. The tissue was dehydrated in graded ethanol and embedded in paraffin. Sections were cut on a microtome, dewaxed, and incubated with polyclonal primary antibodies against collagen I (Abcam 34710) or II (Abcam 34712). The antibodies were diluted 250 (collagen I) or 200 (collagen II) times in phosphate-buffered saline containing 1% bovine serum albumin. Incubation was done at room temperature for 60 min. The sections were then incubated for 30 min at room temperature with horseradish peroxidase-conjugated secondary antibodies (Mach 2 Uni HRP, Biocare Medical) and immunoreactivity was visualized using diaminobenzidine (Biocare Medical)."}, "[1]": {"tested_on": "NP and disc height of patients' IVDs", "assay": "Clinical study, T2-weighted MRI of NP intensity and disc height", "format": "in vivo, human", "design": "key to Individual scoring of change in NP intensity, Assessor No. 1 / Individual scoring of change in NP intensity, Assessor No. 2 / Individual scoring of change in NP intensity, Assessor No. 3 / Individual scoring of change in NP intensity, Assessor No. 4: 1, clear reduction; 0, no change", "details": "for NP intensity change score at T2-weighted MR imaging, Mean ± SD: score 1 clear reduction, 0 no change, 4 assessors", "experimental": "The study was a randomized, double-blinded, placebo-controlled, single ascending dose study with the primary objective to evaluate safety and tolerability following intradiscal injection of LA in Omnipaque or placebo (Omnipaque) in 15 patients with chronic discogenic low back pain. The secondary objective was to assess effects on the NP and disc height using T2-weighted MRI.\nAll MRI investigations were performed using the same scanner (Siemens 1.5 T Avanto) with the following exceptions: Baseline MRI for one placebo-treated patient and 2 patients given the high dose was acquired in a Siemens Symphony 1.5 T scanner while all other scans were done in the Siemens 1.5 T Avanto scanner. Also, baseline and 3 month MRI were done in the Symphony scanner while the other scans were done in the Avanto scanner in 2 placebo-treated patients and one patient treated with the high dose. T1- and T2-weighted sagittal, coronal, and transversal sections were acquired at 4 mm before and after injection of gadolinium contrast.\nDisc height measured as the maximal distance between 2 adjacent endplates and Pfirrmann grade were documented at screening and they were followed throughout the study. Since the Pfirrmann criteria are not sensitive enough to detect minor changes in disc hydration, changes in intensity of the NP at T2-weighted MRI were scored by 4 assessors blind to the group assignment of the patients. The assessors were instructed to score no change as “0” and obvious reduction in intensity as “1”, regardless of time after treatment.\nChanges in intensity of the NP at T2-weighted MR imaging were scored as 1, clear reduction and 0, no change. The scoring was done by 4 assessors blind to the group assignment of the patients. Reductions in disc height were observed throughout the study (Table 8)."}, "[2]": {"details": "LA concentration 30, individual patients and IVDs"}, "[3]": {"details": "LA concentration 60, individual patients and IVDs"}, "[4]": {"details": "LA concentration 120, individual patients and IVDs"}}, "note": "“And” between values parts separate entries of the source, which are not always exact repeats. Identical values can stand only once.", "data": [{"smiles": "CC(O)C(=O)O", "note": "(centres unmarked) [LA, lactic acid]", "values": [{"measurement": "Collagen I immunoreactivity in the NP", "setting": "collagen I", "result": "strongly induced"}, {"measurement": "NP intensity change score, Median", "setting": "[1]; LA 30 mg/mL", "result": 0}, {"measurement": "Disc height change from baseline (mm) Mean ± SD", "setting": "[1]; LA 30 mg/mL, 3 months", "result": "0.3 ± 1.3", "unit": "mm"}, {"measurement": "Disc height change from baseline (mm) Mean ± SD", "setting": "[1]; LA 30 mg/mL, 6 months", "result": "−0.5 ± 0.7", "unit": "mm"}, {"measurement": "Disc height change from baseline (mm) Mean ± SD", "setting": "[1]; LA 30 mg/mL, 12 months", "result": "−0.5 ± 0.7", "unit": "mm"}, {"measurement": "NP intensity change score at T2-weighted MR imaging, Mean ± SD", "setting": "[1]; LA 30 mg/mL", "result": "0.4 ± 0.5"}, {"measurement": "NP intensity change score, Median", "setting": "[1]; LA 60 mg/mL", "result": 1}, {"measurement": "Disc height change from baseline (mm) Mean ± SD", "setting": "[1]; LA 60 mg/mL, 3 months", "result": "−1.0 ± 0.7", "unit": "mm"}, {"measurement": "Disc height change from baseline (mm) Mean ± SD", "setting": "[1]; LA 60 mg/mL, 6 months", "result": "−0.8 ± 0.8", "unit": "mm"}, {"measurement": "Disc height change from baseline (mm) Mean ± SD", "setting": "[1]; LA 60 mg/mL, 12 months", "result": "−1.2 ± 0.8", "unit": "mm"}, {"measurement": "NP intensity change score at T2-weighted MR imaging, Mean ± SD", "setting": "[1]; LA 60 mg/mL", "result": "1.0 ± 0.0"}, {"measurement": "NP intensity change score, Median", "setting": "[1]; LA 120 mg/mL", "result": 1}, {"measurement": "Disc height change from baseline (mm) Mean ± SD", "setting": "[1]; LA 120 mg/mL, 3 months", "result": "−1.2 ± 1.1", "unit": "mm"}, {"measurement": "Disc height change from baseline (mm) Mean ± SD", "setting": "[1]; LA 120 mg/mL, 6 months", "result": "−1.4 ± 1.1", "unit": "mm"}, {"measurement": "Disc height change from baseline (mm) Mean ± SD", "setting": "[1]; LA 120 mg/mL, 12 months", "result": "−1.8 ± 1.3", "unit": "mm"}, {"measurement": "NP intensity change score at T2-weighted MR imaging, Mean ± SD", "setting": "[1]; LA 120 mg/mL", "result": "0.9 ± 0.3"}, {"measurement": "Individual scoring of change in NP intensity, Assessor No. 1", "setting": "[1]; [2]", "result": "0 (2×) and 1 (2×)"}, {"measurement": "Individual scoring of change in NP intensity, Assessor No. 2", "setting": "[1]; [2]", "result": "0 (3×) and 1"}, {"measurement": "Individual scoring of change in NP intensity, Assessor No. 3", "setting": "[1]; [2]", "result": "0 (2×) and 1 (2×)"}, {"measurement": "Individual scoring of change in NP intensity, Assessor No. 4", "setting": "[1]; [2]", "result": "0 (2×) and 1 (2×)"}, {"measurement": "Individual scoring of change in NP intensity, Assessor No. 1", "setting": "[1]; [3]", "result": 1}, {"measurement": "Individual scoring of change in NP intensity, Assessor No. 2", "setting": "[1]; [3]", "result": 1}, {"measurement": "Individual scoring of change in NP intensity, Assessor No. 3", "setting": "[1]; [3]", "result": 1}, {"measurement": "Individual scoring of change in NP intensity, Assessor No. 4", "setting": "[1]; [3]", "result": 1}, {"measurement": "Individual scoring of change in NP intensity, Assessor No. 1", "setting": "[1]; [4]", "result": 1}, {"measurement": "Individual scoring of change in NP intensity, Assessor No. 2", "setting": "[1]; [4]", "result": "1 (3×) and 0 (2×)"}, {"measurement": "Individual scoring of change in NP intensity, Assessor No. 3", "setting": "[1]; [4]", "result": 1}, {"measurement": "Individual scoring of change in NP intensity, Assessor No. 4", "setting": "[1]; [4]", "result": 1}, {"measurement": "% decrease in disc height", "setting": "[1]; lactic acid 30 mg/mL, 3 months", "result": "+3%"}, {"measurement": "% decrease in disc height", "setting": "[1]; lactic acid 30 mg/mL, 6 months", "result": 5, "unit": "%"}, {"measurement": "% decrease in disc height", "setting": "[1]; lactic acid 30 mg/mL, 12 months", "result": 5, "unit": "%"}, {"measurement": "% decrease in disc height", "setting": "[1]; lactic acid 60 mg/mL, 3 months", "result": 11, "unit": "%"}, {"measurement": "% decrease in disc height", "setting": "[1]; lactic acid 60 mg/mL, 6 months", "result": 8, "unit": "%"}, {"measurement": "% decrease in disc height", "setting": "[1]; lactic acid 60 mg/mL, 12 months", "result": 13, "unit": "%"}, {"measurement": "% decrease in disc height", "setting": "[1]; lactic acid 120 mg/mL, 3 months", "result": 11, "unit": "%"}, {"measurement": "% decrease in disc height", "setting": "[1]; lactic acid 120 mg/mL, 6 months", "result": 12, "unit": "%"}, {"measurement": "% decrease in disc height", "setting": "[1]; lactic acid 120 mg/mL, 12 months", "result": 16, "unit": "%"}, {"measurement": "Change in IVD width", "setting": "[1]; patients, after treatment (not shown)", "result": "no change in IVD width"}]}]}
